In patent US8349880B2, “Bicyclic compounds for the reduction of beta-amyloid production” (Bristol-Myers Squibb Company, priority 2009, dated 2013) one finds IC50 data, which are given here for 9 molecules.

A word on the IC50: it is the concentration that gives 50% inhibition.

The test system of the first test is Aβ1-42 production. Nature of the test: Cellular assay for inhibition of Aβ1-42 production (H4 APP751 SWE clone 8.20). The test is classed as cell-based. Conditions: 19 h, H4 APP751 SWE clone 8.20 cells, 19 h incubation; read-out: Activity Rating (Aβ42 cellular IC50, given as a number). On the procedure:
Cellular assays for inhibition of Aβ1-40 and Aβ1-42 production
H4 cells stably transfected with APP751 containing the Swedish mutation (H4 APP751 SWE clone 8.20, developed at BMS) were maintained in log phase through twice weekly passage at a 1:20 split. For IC50 determinations, 30 μl cells (1.5×10^4 cells/well) in DMEM media containing 0.0125% BSA (Sigma A8412) were plated directly into 384-well compound plates (Costar 3709) containing 0.1 μl serially diluted compound in DMSO. Following incubation for 19 h in 5% CO2 at 37° C., plates were briefly centrifuged (1000 rpm, 5 min). A 10 μl aliquot from each well was transferred to a second assay plate (Costar 3709) for Aβ40 measurements. Antibody cocktails were freshly prepared by dilution into 40 mM Tris-HCl (pH 7.4) with 0.2% BSA and added to assay plates. For Aβ42 measurements, antibodies specific for the Aβ42 neoepitope (565, developed at BMS; conjugated to the Wallac reagent (Perkin Elmer)) and the N-terminal sequence of Aβ peptide (26D6, developed at SIBIA; conjugated to APC (Perkin Elmer)) were mixed and 20 μl of the mixture was added to each well of the incubated cell plate yielding a final concentration of 0.8 ng/well 565 and 75 ng/well 26D6. For the Aβ40 measurements, antibodies specific for the Aβ40 neoepitope (TSD, developed at BMS; conjugated to the Wallac reagent (Perkin Elmer)) and 26D6 as described above were mixed and 20 μl of the mixture was added to the 10 μl aliquots which had been removed previously from the cell plate yielding a final concentration of 1.6 ng/well TSD and 17.5 ng/well 26D6. Assay plates containing antibodies were sealed with aluminum foil and incubated overnight at 4° C. Signal was determined using a Viewlux counter (Perkin Elmer) and IC50 values determined using curve fitting in CurveMaster (Excel Fit based).
`COc1cc(Nc2nc3n(n2)C[C@H](O)[C@H](O)CC3c2ccc(F)cc2)ccc1-n1cnc(Cl)c1` (relative stereo) [Example 63, rel-(6S,7R,9R)-2-(4-(4-chloro-1H-imidazol-1-yl)-3-methoxyphenylamino)-9-(4-fluorophenyl)-6,7,8,9-tetrahydro-5H-[1,2,4]triazolo azepine-6,7-diol 2,2,2-trifluoroacetate]: the 50% inhibitory concentration (IC50) amounted to 140 nM.

The same test, now with this note: 19 h, H4 APP751 SWE clone 8.20 cells, 19 h incubation; read-out: Activity Rating (based on Aβ42 cellular IC50 values).
For `COc1cc(Nc2nc3n(n2)C[C@H](O)CC[C@H]3c2ccc(F)cc2)ccc1-n1cnc(Cl)c1` (relative stereo) [Example 62, rel-(6R,9S)-2-(4-(4-chloro-1H-imidazol-1-yl)-3-methoxyphenylamino)-9-(4-fluorophenyl)-6,7,8,9-tetrahydro-5H-[1,2,4]triazolo[1,5-a]azepin-6-ol 2,2,2-trifluoroacetate], the IC50 was less than 10 nM.

For the molecule `COc1cc(Nc2nc3n(n2)C[C@H](O)[C@H](O)C[C@H]3c2ccc(F)cc2)ccc1-n1cnc(Cl)c1` (relative stereo) [Example 64, rel-(6S,7R,9S)-2-(4-(4-chloro-1H-imidazol-1-yl)-3-methoxyphenylamino)-9-(4-fluorophenyl)-6,7,8,9-tetrahydro-5H-[1,2,4]triazolo[1,5-a]azepine-6,7-diol 2,2,2-trifluoroacetate], the IC50 was in the range of 10 to 100 nM.

For `COc1cc(Nc2nc3n(n2)C[C@H](O)CC[C@@H]3c2ccc(F)cc2)ccc1-n1cnc(Cl)c1` (relative stereo) [Example 65, rel-(6R,9R)-2-(4-(4-chloro-1H-imidazol-1-yl)-3-methoxyphenylamino)-9-(4-fluorophenyl)-6,7,8,9-tetrahydro-5H-[1,2,4]triazolo[1,5-a]azepin-6-ol 2,2,2-trifluoroacetate], the half-maximal inhibitory concentration (IC50) is less than 10 nM.

`COc1cc(Nc2nc3n(n2)CC[C@@H](O)C[C@@H]3c2ccc(F)cc2)ccc1-n1cnc(Cl)c1` (relative stereo) [Example 66, rel-(7S,9R)-2-(4-(4-chloro-1H-imidazol-1-yl)-3-methoxyphenylamino)-9-(4-fluorophenyl)-6,7,8,9-tetrahydro-5H-[1,2,4]triazolo[1,5-a]azepin-7-ol 2,2,2-trifluoroacetate]: the IC50 was less than 10 nM.

Regarding `COc1cc(Nc2nc3n(n2)C[C@H](F)[C@H](F)C[C@H]3c2ccc(F)cc2)ccc1-n1cnc(Cl)c1` (relative stereo) [Example 91, rel-(6S,7R,9S)—N-(4-(4-chloro-1H-imidazol-1-yl)-3-methoxyphenyl)-6,7-difluoro-9-(4-fluorophenyl)-6,7,8,9-tetrahydro-5H-[1,2,4]triazolo[1,5-a]azepin-2-amine 2,2,2-trifluoroacetate], the concentration for half-maximal inhibition (IC50) is less than 10 nM.

As to `COc1cc(Nc2nc3n(n2)CC[C@](C)(O)C[C@@H]3c2ccc(F)cc2)ccc1-n1cnc(Cl)c1` (relative stereo) [Example 147, rel-(7R,9R)-2-(4-(4-chloro-1H-imidazol-1-yl)-3-methoxyphenylamino)-9-(4-fluorophenyl)-7-methyl-6,7,8,9-tetrahydro-5H-[1,2,4]triazolo[1,5-a]azepin-7-ol 2,2,2-trifluoroacetate], the IC50 is less than 10 nM.

For the molecule `Cc1ncnn1-c1ccc(Nc2nc3n(n2)CC[C@](C)(O)C[C@@H]3c2ccc(F)cc2)cc1F` (relative stereo) [Example 150, rel-(7R,9R)-2-(3-fluoro-4-(5-methyl-1H-1,2,4-triazol-1-yl)phenylamino)-9-(4-fluorophenyl)-7-methyl-6,7,8,9-tetrahydro-5H-[1,2,4]triazolo[1,5-a]azepin-7-ol 2,2,2-trifluoroacetate], the IC50 was in the range of 10 to 100 nM.

On to `Cc1ncnn1-c1ccc(Nc2nc3n(n2)CC[C@@](C)(O)C[C@@H]3c2ccc(F)cc2)cc1F` (relative stereo) [Example 151, rel-(7S,9R)-2-(3-fluoro-4-(5-methyl-1H-1,2,4-triazol-1-yl)phenylamino)-9-(4-fluorophenyl)-7-methyl-6,7,8,9-tetrahydro-5H-[1,2,4]triazolo[1,5-a]azepin-7-ol 2,2,2-trifluoroacetate], for which the IC50 lay in the range of 10 to 100 nM.
